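Dose response: 5 concentrations. Exposure: 48 h. Format: 96-well plates. Endpoint: linear interpolation; highest concentration if not reached. At the GI50, growth is halved. TGI is the concentration that stops growth completely.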

Test systems include 786-0 renal; HT29 colon; HCT-116 colon; CCRF-CEM leukemia; HCC-2998 colon; MDA-MB-231 breast; HOP-62 NSCLC; SNB-75 CNS; BT-549 breast; UACC-257 melanoma.
Holding throughout (assay): NCI tumour cell line growth inhibition, 48 h

With `O=C(O)c1ccc(/C=N\N(CCO)C2=NCCN2)cc1`, the TGI with 786-0 renal, in the assay with HT29 colon, in the assay with HCT-116 colon, in the assay with CCRF-CEM leukemia, in the assay on HCC-2998 colon and in the assay with MDA-MB-231 breast was over 100 µM throughout. Besides, the TGI with HOP-62 NSCLC, with SNB-75 CNS and with BT-549 breast was over 100 µM throughout.
For the compound `CC1(C)OCC(C2OC(=O)C(OCc3ccccc3)=C2OCc2ccccc2)O1` (stereo not given), the TGI with 786-0 renal was over 100 µM; in the assay with HT29 colon, over 100 µM; in the assay with HCT-116 colon, over 100 µM; with CCRF-CEM leukemia it was over 100 µM; in the assay on HCC-2998 colon, over 100 µM; with UACC-257 melanoma it was 96.8 µM. In addition, the TGI in the assay with MDA-MB-231 breast was over 100 µM; with HOP-62 NSCLC, over 100 µM; in the assay on SNB-75 CNS, over 100 µM; in the assay on BT-549 breast, 93.2 µM.
In the case of `CCN(CC)CCNC(=O)c1cc2cc(NC(=O)c3cc4cc(NC(=O)c5cc6cc([N+](=O)[O-])ccc6[nH]5)ccc4[nH]3)ccc2[nH]1`, the TGI with 786-0 renal is over 100 µM; in the assay on HT29 colon, over 100 µM; with CCRF-CEM leukemia it was 67.3 µM; in the assay with HCC-2998 colon it was over 100 µM; with UACC-257 melanoma, over 100 µM; in the assay on MDA-MB-231 breast, over 100 µM. In addition, the TGI with HOP-62 NSCLC, in the assay on SNB-75 CNS and in the assay with BT-549 breast was over 100 µM throughout.
As to `CC(C)(CO)NC(=O)c1cccc(C(=O)NC(C)(C)CO)c1Br`, the TGI in the assay with 786-0 renal, in the assay with HT29 colon, with HCT-116 colon, in the assay on HCC-2998 colon, with UACC-257 melanoma and in the assay with MDA-MB-231 breast was over 100 µM each time. Further, the TGI in the assay with HOP-62 NSCLC, in the assay with SNB-75 CNS and in the assay with BT-549 breast was over 100 µM throughout.
For the compound `CS(=O)(=O)OC1CCN(C2(c3cccc(O)c3)CCCCC2)CC1`, the TGI was 92.4 µM in the assay with 786-0 renal; over 100 µM in the assay on HT29 colon; over 100 µM in the assay on HCT-116 colon; 60.5 µM in the assay on CCRF-CEM leukemia; 39.7 µM in the assay with HCC-2998 colon; over 100 µM in the assay with UACC-257 melanoma. The TGI in the assay with MDA-MB-231 breast, in the assay with HOP-62 NSCLC, in the assay with SNB-75 CNS and in the assay with BT-549 breast was over 100 µM each time.
As for `CCC(C)N1CN(c2ccccc2)C2(CCN(CCCC(=O)c3ccc(F)cc3)CC2)C1=O` (stereo not given), the TGI in the assay on 786-0 renal was over 100 µM; in the assay on HT29 colon it was 2.35 µM; in the assay with HCT-116 colon, 3.16 µM; in the assay on CCRF-CEM leukemia it was over 100 µM; in the assay on MDA-MB-231 breast, 23.1 µM; with HOP-62 NSCLC, 4.51 µM. For the same compound, the TGI with SNB-75 CNS came to 38.3 µM; in the assay on BT-549 breast it was 26 µM.
`CC(=O)O[C@H]1CC[C@H]2[C@@H]3CC[C@H]4Nc5c(cnn5S(C)(=O)=O)C[C@]4(C)[C@H]3CC[C@]12C`: the TGI in the assay with HT29 colon is over 100 µM; with HCT-116 colon it was over 100 µM; in the assay with CCRF-CEM leukemia, over 100 µM; with HCC-2998 colon, over 100 µM; with MDA-MB-231 breast, over 100 µM; in the assay on HOP-62 NSCLC, 77.4 µM. In addition, the TGI in the assay with SNB-75 CNS was over 100 µM; in the assay on BT-549 breast, 80.9 µM.
`Cc1cc(O)c(/C=N/C(=O)NN)c(=O)o1`: the TGI with 786-0 renal, in the assay with HCT-116 colon, in the assay on CCRF-CEM leukemia, in the assay on HCC-2998 colon, in the assay on UACC-257 melanoma and with MDA-MB-231 breast was over 100 µM throughout. The TGI in the assay on HOP-62 NSCLC, in the assay on SNB-75 CNS and with BT-549 breast was over 100 µM throughout.
In the case of `CC1(C)C(C(=O)OC(C#N)c2cccc(OCC(=O)OCc3ccccc3)c2)C1(C)C` (stereo not given), the TGI with 786-0 renal was over 100 µM; in the assay on HT29 colon it was over 100 µM; in the assay with HCT-116 colon, over 100 µM; in the assay with CCRF-CEM leukemia, 76.5 µM; in the assay on UACC-257 melanoma it was over 100 µM; with MDA-MB-231 breast it was over 100 µM. Also, the TGI with HOP-62 NSCLC, in the assay with SNB-75 CNS and in the assay on BT-549 breast was over 100 µM each time.
In the case of `CCNC(=O)CCCCC(=O)c1c(C)[nH]c(/C=C2\N=C(c3ccc[nH]3)C=C2OC)c1C`, the GI50 is 2.34 µM in the assay with HT29 colon; 2.33 µM in the assay on HCT-116 colon; 2.59 µM with CCRF-CEM leukemia; 2.42 µM with HCC-2998 colon; 6.41 µM in the assay with UACC-257 melanoma; 2.04 µM with MDA-MB-231 breast. Besides, the GI50 in the assay on HOP-62 NSCLC was 1.1 µM; with SNB-75 CNS, 3.26 µM; with BT-549 breast, 2.85 µM. The TGI in the assay with HT29 colon was 7.68 µM; with HCT-116 colon it was 23.6 µM; in the assay on CCRF-CEM leukemia, over 100 µM; with HCC-2998 colon, 7.9 µM; in the assay with UACC-257 melanoma, 26.1 µM; in the assay with MDA-MB-231 breast it was 4.32 µM. Also, the TGI in the assay on HOP-62 NSCLC was found to be 2.88 µM; in the assay with SNB-75 CNS, 24.4 µM; with BT-549 breast it was 10.3 µM.
With `FC(F)(F)c1nc2cc(SSc3cc4nc(C(F)(F)F)[nH]c4cc3Cl)c(Cl)cc2[nH]1`, the TGI with 786-0 renal, in the assay with HT29 colon, with HCT-116 colon, in the assay with HCC-2998 colon, with UACC-257 melanoma and with MDA-MB-231 breast was over 100 µM throughout. In addition, the TGI in the assay with HOP-62 NSCLC and in the assay with BT-549 breast was over 100 µM throughout.
In the case of `COC(=O)Nc1nc2ccc(NS(=O)(=O)c3ccc(F)cc3)cc2[nH]1`, the TGI with 786-0 renal was over 100 µM; in the assay with HT29 colon, 37.4 µM; in the assay with HCT-116 colon it was over 100 µM; in the assay with CCRF-CEM leukemia it was over 100 µM; in the assay on MDA-MB-231 breast, over 100 µM; with HOP-62 NSCLC, over 100 µM. For the same compound, the figures for the TGI with SNB-75 CNS and with BT-549 breast were 70.1 µM and over 100 µM, respectively.
On to `CCOc1ccc(C(c2c(O)c3ccccc3oc2=O)c2c(O)c3ccccc3oc2=O)cc1`, for which the TGI in the assay on 786-0 renal, in the assay on HT29 colon, in the assay with HCT-116 colon, in the assay with CCRF-CEM leukemia, in the assay with UACC-257 melanoma and with MDA-MB-231 breast was over 100 µM in each case. Further, the TGI in the assay on HOP-62 NSCLC and in the assay with BT-549 breast was over 100 µM throughout.
As for `COC(=O)C(Cc1ccccc1)NC(=O)C(CCCN=C(N)N)NC(=O)OCc1ccccc1` (stereo not given), the TGI with 786-0 renal, in the assay on HT29 colon, with HCT-116 colon, with CCRF-CEM leukemia, in the assay on HCC-2998 colon and in the assay with MDA-MB-231 breast was over 100 µM in each case. For the same compound, the TGI with HOP-62 NSCLC, with SNB-75 CNS and with BT-549 breast was over 100 µM throughout.
For `CCCCCCCCCCCCCCCCCCNC(=S)/N=C/c1c(O)cc(C)oc1=O`, the TGI is over 100 µM with 786-0 renal; 76.8 µM in the assay with HT29 colon; over 100 µM in the assay with HCT-116 colon; 39 µM in the assay with HCC-2998 colon; 65.3 µM in the assay with UACC-257 melanoma; over 100 µM in the assay on MDA-MB-231 breast. The TGI in the assay with HOP-62 NSCLC is over 100 µM; in the assay with SNB-75 CNS, 49.3 µM; with BT-549 breast, 40.6 µM.
Turning to `CC[C@@]1(O)C(=O)OCc2c1cc1n(c2=O)Cc2c-1nc1ccccc1c2/C=N\NC(=O)C(N)=O`, the TGI was 16 µM in the assay with 786-0 renal; over 100 µM in the assay with HT29 colon; over 53.9 µM with HCT-116 colon; over 100 µM with HCC-2998 colon; over 100 µM in the assay on UACC-257 melanoma; over 100 µM in the assay on MDA-MB-231 breast. The TGI in the assay with HOP-62 NSCLC was over 45.1 µM; with SNB-75 CNS it was over 26 µM; in the assay with BT-549 breast it was over 90.9 µM.
For the compound `CNc1nc(=O)c(C#N)c(-c2ccc(C)cc2)s1`, the TGI in the assay with 786-0 renal, with HT29 colon, in the assay with HCT-116 colon, in the assay on CCRF-CEM leukemia, with HCC-2998 colon and in the assay with UACC-257 melanoma was over 100 µM each time. For the same compound, the TGI with MDA-MB-231 breast, in the assay with SNB-75 CNS and in the assay with BT-549 breast was over 100 µM throughout.
As to `COc1cc(C(c2cc(OC)c(OC)c(OC)c2)N2C(=O)CCC2C(=O)O)cc(OC)c1OC` (stereo not given), the TGI in the assay on 786-0 renal, in the assay with HT29 colon, in the assay with HCT-116 colon, in the assay with CCRF-CEM leukemia, with UACC-257 melanoma and in the assay with MDA-MB-231 breast was over 100 µM in each case. Besides, the TGI with HOP-62 NSCLC, with SNB-75 CNS and with BT-549 breast was over 100 µM throughout.
For the compound `CCOC(=S)SC/C(=N\OC(C)(C)OC)c1ccccc1`, the TGI in the assay on 786-0 renal is over 100 µM; with HT29 colon it was 58.3 µM; in the assay with HCT-116 colon, 77.5 µM; in the assay with CCRF-CEM leukemia, 44.5 µM; in the assay with HCC-2998 colon it was 61.8 µM; in the assay on UACC-257 melanoma, over 100 µM. Also, the TGI with MDA-MB-231 breast, with HOP-62 NSCLC and in the assay with BT-549 breast was over 100 µM each time.
As for `CCOC(=O)C1CCCC1S(=O)(=O)c1ccc(C)cc1` (stereo not given), the TGI in the assay on 786-0 renal, in the assay with HT29 colon, with HCT-116 colon, with CCRF-CEM leukemia, with HCC-2998 colon and in the assay on MDA-MB-231 breast was over 100 µM in each case. The TGI with HOP-62 NSCLC, in the assay with SNB-75 CNS and in the assay with BT-549 breast was over 100 µM throughout.
As for `Cc1ccc(N2C(=O)C(O)=C(C(=O)C(C)(C)C)C2c2ccc([N+](=O)[O-])cc2)cc1` (stereo not given), the TGI was 39.9 µM with 786-0 renal; 37.3 µM in the assay on HT29 colon; 29.4 µM with HCT-116 colon; over 100 µM in the assay on CCRF-CEM leukemia; 45.4 µM in the assay with HCC-2998 colon; 34.8 µM with UACC-257 melanoma. In addition, the figures for the TGI in the assay on MDA-MB-231 breast, in the assay on HOP-62 NSCLC and with BT-549 breast were 45.7 µM, 49.2 µM and 39 µM, respectively.
